The results in this text go back to patent US7125878B2, “Substituted pyrroline kinase inhibitors” (Janssen Pharmaceutica, priority 2002, dated 2006).

Where “and” joins values, the source holds several entries; their conditions need not be identical. Equal values may be shown once.

One experiment has as its target PKC-α (Homo sapiens, UniProt P17252). The experiment in a line: Protein Kinase C Histone-Based Assay, isozyme α. Particulars: read-out: PKC-α % inhibition.
For another experiment, the target named is PKC-βII (Homo sapiens, UniProt P05771). Nature of the experiment: Protein Kinase C Histone-Based Assay, isozyme β-II. The format is biochemical.
Chain of PKC-βII (P05771 1-673 isoform P05771-2): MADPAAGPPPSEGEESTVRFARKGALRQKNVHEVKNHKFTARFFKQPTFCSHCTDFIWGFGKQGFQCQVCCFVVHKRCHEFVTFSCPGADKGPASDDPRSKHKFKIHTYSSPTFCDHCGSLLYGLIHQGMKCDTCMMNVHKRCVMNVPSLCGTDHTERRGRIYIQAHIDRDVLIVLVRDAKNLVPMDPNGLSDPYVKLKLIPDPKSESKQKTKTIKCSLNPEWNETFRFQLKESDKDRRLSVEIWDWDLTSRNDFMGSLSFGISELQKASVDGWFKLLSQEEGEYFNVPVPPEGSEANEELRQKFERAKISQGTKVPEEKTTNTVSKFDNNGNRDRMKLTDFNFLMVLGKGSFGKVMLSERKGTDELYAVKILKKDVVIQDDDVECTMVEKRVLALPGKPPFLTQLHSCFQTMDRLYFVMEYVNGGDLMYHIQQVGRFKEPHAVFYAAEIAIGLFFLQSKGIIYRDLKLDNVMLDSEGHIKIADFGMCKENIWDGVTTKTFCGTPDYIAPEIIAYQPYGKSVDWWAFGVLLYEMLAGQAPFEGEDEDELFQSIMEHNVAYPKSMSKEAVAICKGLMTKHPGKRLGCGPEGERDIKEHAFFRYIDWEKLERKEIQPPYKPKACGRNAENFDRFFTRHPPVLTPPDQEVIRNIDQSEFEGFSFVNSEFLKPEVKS
Experiment [1] concerns the target T1, recombinant rabbit GSK-3β protein (Oryctolagus cuniculus, UniProt G1T8E2).
T1 construct: purchased New England Biolabs
Nature of the experiment: Glycogen Synthase Kinase-3 Assay (33P phosphorylation of PPI-2). The format is biochemical. As to conditions: for IC50: two numbers = data obtained on different days; for inhibition at 1 µM: two numbers = different days. How it is done:
Glycogen Synthase Kinase-3 Assay
Compounds were tested for the ability to inhibit recombinant rabbit GSK-3β protein using the following protocol. The test compound was added to a reaction mixture containing Protein Phosphatase Inhibitor-2 (PPI-2) (Calbiochem) (45 ng), rabbit GSK-3β protein (New England Biolabs) (0.75 units) and ^33P-ATP (1 μCi) in 50 mM Tris-HCl (pH 8.0), 10 mM MgCl2, 0.1% BSA, 1 mM DTT and 100 μM Sodium Vanadate. The mixture was reacted for 90 minutes at 30° C. to allow phosphorylation of the PPI-2 protein and then the protein in the reaction was precipitated using 10% TCA. The precipitated protein was collected on filter plates (MultiScreen-DV/Millipore), which were subsequently washed. Finally, the radioactivity was quantified using a TopCount Scintillation Counter (Packard). […] Staurosporine or Valproate, known inhibitors of GSK-3β, were used as a positive control for screening.

The target in a further experiment is PKC-γ (Homo sapiens, UniProt P05129). The experiment in a line: Protein Kinase C Histone-Based Assay, isozyme γ. Particulars: read-out: PKC-γ % inhibition.

T1 sequence (G1T8E2 1-432): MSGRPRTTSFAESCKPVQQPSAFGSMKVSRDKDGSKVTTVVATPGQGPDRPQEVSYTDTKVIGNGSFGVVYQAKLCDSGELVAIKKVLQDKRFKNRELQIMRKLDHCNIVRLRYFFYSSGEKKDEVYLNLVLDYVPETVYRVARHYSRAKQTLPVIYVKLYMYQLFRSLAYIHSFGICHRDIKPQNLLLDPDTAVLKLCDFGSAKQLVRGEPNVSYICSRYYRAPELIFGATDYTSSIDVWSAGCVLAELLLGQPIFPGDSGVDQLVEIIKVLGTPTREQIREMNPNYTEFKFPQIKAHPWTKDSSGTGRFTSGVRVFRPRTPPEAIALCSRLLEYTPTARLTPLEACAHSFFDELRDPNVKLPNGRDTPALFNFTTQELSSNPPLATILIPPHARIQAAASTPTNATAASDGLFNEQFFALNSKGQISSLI
Procedure for PKC-α: (§1) Compounds were evaluated for PKC isozyme selectivity using histone III as the substrate. […] 100 μg/mL phosphatidylserine, 20 μg/mL diacylglycerol, 30 μM ATP, 1 μCi [^33P]ATP and 200 μg/mL histone III. The reaction was incubated for 10 min at 30° C. Reactions were terminated by TCA precipitation and spotting on Whatman P81 filters. Filters were washed in 75 mM phosphoric acid and the radioactivity quantified by liquid scintillation counting.
Procedure for PKC-βII: as §1
Procedure for PKC-γ: as §1

For orientation: inhibition means the change of the read-out against control, counted positive when it falls. One may read the IC50 as the concentration at which inhibition is half-maximal. For `O=C1NC(=O)C(c2cn(CCCO)c3ncccc23)=C1c1ccccc1Cl` [Cpd 1, 3-(2-chlorophenyl)-4-[1-(3-hydroxypropyl)-1H-pyrrolo[2,3-b]pyridin-3-yl]-1H-pyrrole-2,5-dione], the inhibition at 1 µM on PKC-α came to 18%; at PKC-βII it was 14%; on PKC-γ, 48%. Besides, the figures for the inhibition at 10 µM on PKC-α, against PKC-βII and on PKC-γ were 2%, 81% and 43%, respectively. In addition, the IC50 in experiment [1] was 9 nM and 10 nM.
Consider `CN(C)CCCn1cc(C2=C(c3ccccc3Cl)C(=O)NC2=O)c2cccnc21` [Cpd 2, 3-(2-chlorophenyl)-4-[1-[3-(dimethylamino)propyl]-1H-pyrrolo[2,3-b]pyridin-3-yl]-1H-pyrrole-2,5-dione], for which the results for the inhibition at 1 µM at PKC-α, on PKC-βII and at PKC-γ were 0%, 22% and 46%, respectively. The inhibition at 10 µM on PKC-α amounted to 1%; at PKC-βII, 50%; at PKC-γ, 54%. Further, the 50% inhibitory concentration (IC50) in experiment [1] was found to be 19 nM.
As for `O=C1NC(=O)C(c2cn(CCCO)c3ncccc23)=C1c1cnc(-c2ccccc2)o1` [Cpd 49, 3-[1-(3-Hydroxy-propyl)-1H-pyrrolo[2,3-b]pyridin-3-yl]-4-(2-phenyl-oxazol-5-yl)-pyrrole-2,5-dione], the IC50 in experiment [1] is 56 nM and 58 nM.
As for `O=C1NC(=O)C(c2cn(CCCO)c3ncccc23)=C1c1cc2n(n1)CCC2` [Cpd 50, 3-(5,6-Dihydro-4H-pyrrolo[1,2-b]pyrazol-2-yl)-4-[1-(3-hydroxy-propyl)-1H-pyrrolo[2,3-b]pyridin-3-yl]-pyrrole-2,5-dione], in experiment [1], the half-inhibitory concentration (IC50) was 88 nM and 107 nM.
Consider `O=C1NC(=O)C(c2cn(CCCO)c3ncccc23)=C1C1=COCCO1` [Cpd 51, 3-(5,6-Dihydro-[1,4]dioxin-2-yl)-4-[1-(3-hydroxy-propyl)-1H-pyrrolo[2,3-b]pyridin-3-yl]-pyrrole-2,5-dione], for which the concentration for half-maximal inhibition (IC50) in experiment [1] is 150 nM and 187 nM.
For the compound `O=C1NC(=O)C(c2cn(CCCO)c3ncccc23)=C1c1ccco1` [Cpd 53, 3-Furan-2-yl-4-[1-(3-hydroxy-propyl)-1H-pyrrolo[2,3-b]pyridin-3-yl]-pyrrole-2,5-dione], the half-inhibitory concentration (IC50) in experiment [1] is 211 nM and 143 nM.
The same measure, in the same setting: the result for `O=C1NC(=O)C(c2cn(CCCO)c3ncccc23)=C1c1cc2n(n1)CCCC2` [Cpd 54, 3-[1-(3-Hydroxy-propyl)-1H-pyrrolo[2,3-b]pyridin-3-yl]-4-(4,5,6,7-tetrahydro-pyrazolo[1,5-a]pyridin-2-yl)-pyrrole-2,5-dione] reads 232 nM and 161 nM.
With `O=C1NC(=O)C(c2cn(CCCO)c3ncccc23)=C1c1ncccn1` [Cpd 56, 3-[1-(3-Hydroxy-propyl)-1H-pyrrolo[2,3-b]pyridin-3-yl]-4-pyrimidin-2-yl-pyrrole-2,5-dione], in experiment [1], the inhibition at 1 µM was 23%.
For the compound `COc1ncc(C2=C(c3cn(CCCc4ccccc4)c4ncccc34)C(=O)NC2=O)c(OC)n1` [Cpd 57, 3-(2,4-Dimethoxy-pyrimidin-5-yl)-4-[1-(3-phenyl-propyl)-1H-pyrrolo[2,3-b]pyridin-3-yl]-pyrrole-2,5-dione], the half-maximal inhibitory concentration (IC50) in experiment [1] was 15 nM and 10 nM.
Same read-out and setting: to `O=C1NC(=O)C(c2cn(CCCc3ccccc3)c3ncccc23)=C1c1cncnc1` [Cpd 58, 3-[1-(3-Phenyl-propyl)-1H-pyrrolo[2,3-b]pyridin-3-yl]-4-pyrimidin-5-yl-pyrrole-2,5-dione] belongs 366 nM and 344 nM.
Same read-out and setting: the result for `O=C1NC(=O)C(c2cn(CCCc3ccccc3)c3ncccc23)=C1c1cc2n(n1)CCC2` [Cpd 59, 3-(5,6-Dihydro-4H-pyrrolo[1,2-b]pyrazol-2-yl)-4-[1-(3-phenyl-propyl)-1H-pyrrolo[2,3-b]pyridin-3-yl]-pyrrole-2,5-dione] reads 519 nM and 424 nM; that for `O=C1NC(=O)C(c2cn(CCCc3ccccc3)c3ncccc23)=C1c1cnccn1` [Cpd 60, 3-[1-(3-Phenyl-propyl)-1H-pyrrolo[2,3-b]pyridin-3-yl]-4-pyrazin-2-yl-pyrrole-2,5-dione], 625 nM; that for `O=C1NC(=O)C(c2cn(CCCc3ccccc3)c3ncccc23)=C1C1=CCCCO1` [Cpd 61, 3-(5,6-Dihydro-4H-pyran-2-yl)-4-[1-(3-phenyl-propyl)-1H-pyrrolo[2,3-b]pyridin-3-yl]-pyrrole-2,5-dione], 714 nM and 635 nM.
As for `COc1ncc(C2=C(c3cn(CCCC#N)c4ncccc34)C(=O)NC2=O)c(OC)n1` [Cpd 62, 4-{3-[4-(2,4-Dimethoxy-pyrimidin-5-yl)-2,5-dioxo-2,5-dihydro-1H-pyrrol-3-yl]-pyrrolo[2,3-b]pyridin-1-yl}-butyronitrile], the IC50 in experiment [1] was 36 nM and 35 nM.
Turning to `N#CCCCn1cc(C2=C(c3cnccn3)C(=O)NC2=O)c2cccnc21` [Cpd 63, 4-[3-(2,5-Dioxo-4-pyrazin-2-yl-2,5-dihydro-1H-pyrrol-3-yl)-pyrrolo[2,3-b]pyridin-1-yl]-butyronitrile], the IC50 in experiment [1] is 77 nM and 102 nM.
Consider `Cn1ccc(C2=C(c3cn(CCCC#N)c4ncccc34)C(=O)NC2=O)n1` [Cpd 64, 4-{3-[4-(1-Methyl-1H-pyrazol-3-yl)-2,5-dioxo-2,5-dihydro-1H-pyrrol-3-yl]-pyrrolo[2,3-b]pyridin-1-yl}-butyronitrile], for which the IC50 in experiment [1] was 77 nM and 128 nM.
Still for that read-out and setting: to `O=C1NC(=O)C(c2cn(CCCOc3ccccc3)c3ncccc23)=C1c1cc2n(n1)CCC2` [Cpd 65, 3-(5,6-Dihydro-4H-pyrrolo[1,2-b]pyrazol-2-yl)-4-[1-(3-phenoxy-propyl)-1H-pyrrolo[2,3-b]pyridin-3-yl]-pyrrole-2,5-dione] belongs 188 nM and 244 nM.
Take `Cn1nccc1C1=C(c2cn(CCCO)c3ncccc23)C(=O)NC1=O` [Cpd 66, 3-[1-(3-Hydroxy-propyl)-1H-pyrrolo[2,3-b]pyridin-3-yl]-4-(2-methyl-2H-pyrazol-3-yl)-pyrrole-2,5-dione]: in experiment [1], the IC50 was 480 nM and 660 nM.
Take `O=C1NC(=O)C(c2cn(CCCO)c3ncccc23)=C1c1ccoc1` [Cpd 67, 3-Furan-3-yl-4-[1-(3-hydroxy-propyl)-1H-pyrrolo[2,3-b]pyridin-3-yl]-pyrrole-2,5-dione]: in experiment [1], the half-maximal inhibitory concentration (IC50) is 140 nM and 59 nM.
`O=C1NC(=O)C(c2cn(CCCO)c3ncccc23)=C1c1c[nH]c(=O)[nH]c1=O` [Cpd 68, 5-{4-[1-(3-Hydroxy-propyl)-1H-pyrrolo[2,3-b]pyridin-3-yl]-2,5-dioxo-2,5-dihydro-1H-pyrrol-3-yl}-1H-pyrimidine-2,4-dione]: in experiment [1], the inhibition at 1 µM amounted to 43%.
As for `Cn1ccc(C2=C(c3cn(CCC#N)c4ncccc34)C(=O)NC2=O)n1` [Cpd 69, 3-{3-[4-(1-Methyl-1H-pyrazol-3-yl)-2,5-dioxo-2,5-dihydro-1H-pyrrol-3-yl]-pyrrolo[2,3-b]pyridin-1-yl}-propionitrile], the IC50 in experiment [1] was found to be 100 nM.
Turning to `CCCCC1=C(c2cn(CCCO)c3ncccc23)C(=O)NC1=O` [Cpd 70, 3-Butyl-4-[1-(3-hydroxy-propyl)-1H-pyrrolo[2,3-b]pyridin-3-yl]-pyrrole-2,5-dione], the IC50 in experiment [1] stood at 380 nM.
As to `COCCn1cc(C2=C(c3cnc(OC)nc3OC)C(=O)NC2=O)c2cccnc21` [Cpd 71, 3-(2,4-Dimethoxy-pyrimidin-5-yl)-4-[1-(2-methoxy-ethyl)-1H-pyrrolo[2,3-b]pyridin-3-yl]-pyrrole-2,5-dione], the IC50 in experiment [1] was 360 nM.
Turning to `COc1ncc(C2=C(c3cn(Cc4ccccc4)c4ncccc34)C(=O)NC2=O)c(OC)n1` [Cpd 72, 3-(1-Benzyl-1H-pyrrolo[2,3-b]pyridin-3-yl)-4-(2,4-dimethoxy-pyrimidin-5-yl)-pyrrole-2,5-dione], the inhibition at 1 µM in experiment [1] was found to be 54%.
Take `COc1ncc(C2=C(c3cn(CCc4ccccc4)c4ncccc34)C(=O)NC2=O)c(OC)n1` [Cpd 73, 3-(2,4-Dimethoxy-pyrimidin-5-yl)-4-(1-phenethyl-1H-pyrrolo[2,3-b]pyridin-3-yl)-pyrrole-2,5-dione]: the half-maximal inhibitory concentration (IC50) in experiment [1] is 100 nM.
On to `COc1ncc(C2=C(c3cn(CCCc4cccs4)c4ncccc34)C(=O)NC2=O)c(OC)n1` [Cpd 74, 3-(2,4-Dimethoxy-pyrimidin-5-yl)-4-[1-(3-thiophen-2-yl-propyl)-1H-pyrrolo[2,3-b]pyridin-3-yl]-pyrrole-2,5-dione], for which, in experiment [1], the inhibition at 1 µM stood at 39%.
Consider `COc1ncc(C2=C(c3cn(CCOc4ccc(F)cc4)c4ncccc34)C(=O)NC2=O)c(OC)n1` [Cpd 75, 3-(2,4-Dimethoxy-pyrimidin-5-yl)-4-{1-[2-(4-fluoro-phenoxy)-ethyl]-1H-pyrrolo[2,3-b]pyridin-3-yl}-pyrrole-2,5-dione], for which the half-maximal inhibitory concentration (IC50) in experiment [1] is 240 nM.
As to `COc1ncc(C2=C(c3cn(CCCOc4ccccc4)c4ncccc34)C(=O)NC2=O)c(OC)n1` [Cpd 76, 3-(2,4-Dimethoxy-pyrimidin-5-yl)-4-[1-(3-phenoxy-propyl)-1H-pyrrolo[2,3-b]pyridin-3-yl]-pyrrole-2,5-dione], the half-maximal inhibitory concentration (IC50) in experiment [1] is 43 nM and 59 nM.
In the case of `COc1ccccc1C1=C(c2cn(CCCNC(C)=O)c3ncccc23)C(=O)NC1=O` [Cpd 77, N-[3-[3-[2,5-dihydro-4-(2-methoxyphenyl)-2,5-dioxo-1H-pyrrol-3-yl]-1H-pyrrolo[2,3-b]pyridin-1-yl]propyl]-acetamide], on PKC-α, the inhibition at 10 µM worked out at 26%. Also, the inhibition at 1 µM at PKC-βII stood at 49%. Besides, the half-maximal inhibitory concentration (IC50) in experiment [1] was 2 nM and 3 nM.
